The subject of one data set is microtubules. Conditions: in vitro; cited from earlier work.
The nature of data set [1]: precipitation of taxol from oil solution under vacuum. To be noted: bath temperatures less than 50° to 60° C. The data set is classed as physicochemical.
The conditions of data set [2]: cited from earlier work.
In a further data set the test system is melanoma. Conditions: cited from earlier work.
The nature of data set [3]: solubilization of taxol in squalane oil. The data set is classed as physicochemical. To be noted: 4.0 mg taxol in 0.400 ml squalane oil, methanol removed. As for the experimental part: The methanol was then removed with heating and nitrogen blanket at about 60° C. for 10 minutes.
In the next data set the test system is leukemia. To be noted: cited from earlier work.
For data set [4] the following is noted: nonemulsified form; cited from earlier work.
The test system of another data set is colon. Conditions: cited from earlier work.
The test system of a further data set is Lewis lung tumor. To be noted: cited from earlier work.
Data set [5] can be described thus: thermal stability of taxol. The data set is classed as physicochemical. To be noted: 130° C. The protocol: The process steps can in many cases be performed at about room temperature. […] The process steps should be performed to avoid melting or decomposition of the matrix compound, i.e., the process should be performed at temperatures less than about the melting point or decomposition point of the matrix compound, generally about 140° C. or less. […] Thus preferred temperatures for performing the process steps are about 60° C. to about 130° C.

The next data set has as its system breast. Conditions: cited from earlier work.
For another data set, the system named is sarcomas. Conditions: cited from earlier work.

We go through 1 compound from US5407683A (Research Corporation Technologies, Inc., priority 1992, dated 1995).

In brackets after ≈: the same amount, converted by molar mass.

Turning to `CC(=O)O[C@H]1C(=O)[C@@]2(C)[C@H]([C@H](OC(=O)c3ccccc3)[C@]3(O)C[C@H](OC(=O)[C@H](O)[C@@H](NC(=O)c4ccccc4)c4ccccc4)C(C)=C1C3(C)C)[C@]1(OC(C)=O)CO[C@@H]1C[C@@H]2O` [Taxol], the “concentrations that stabilize microtubules, thus disrupting normal cell division” value in the data set with microtubules is 0.1 to 10.0 µg/mL. Further, in data set [1], the “precipitation from the oil solution” value was “tends to precipitate from the oil solution”. Further, the solubility in vehicle in data set [2] (ethanol:cremophor EL:isotonic saline (5:5:90)) was not above 600 µg/mL. Besides, the “solubility in most oils” value in data set [2] (safflower, olive and soybean oil) was 300 to 600 µg/mL. The “solubility in soybean oil” value in data set [2] (soybean oil) is 300 µg/mL (≈ 351 µM). For the same compound, the solubility in triacetin in data set [2] (triacetin) was 30000 µg/mL (≈ 35100 µM). The activity against melanoma result in the data set on melanoma is on record as “active”. The “solubilization of taxol in squalane oil” value in data set [3] is “completely solubilized”. Further, the activity against leukemia result in the data set on leukemia is given as “active”. Besides, the “degradation in the stomach” value in [4] is listed as “degraded in the stomach”. Further, in the data set on colon, the “activity against colon tumor system” value is “active”. For the same compound, in the data set with Lewis lung tumor, the “activity against Lewis lung tumor system” value is “active”. In addition, the thermal stability entry in [5] is on record as “stable for at least about two hours”. Also, the “activity against breast tumor system” value in the data set on breast is on record as “active”. The activity against sarcomas entry in the data set with sarcomas is recorded as “active”.
